Measured values as given in US5508437A, “Analogs of tyrosine sulfate or tyrosine phosphate containing peptides” (Hoffmann-La Roche Inc., priority 1993, dated 1996).
pIC50: −log10 of the molar value. Where two headings read alike, the source gives them in different places. Starred links: 1 amine or outer side, 2 acyl side, 3 side chain; linkers in the order of their positions; H or OH if unused. Non-standard residues stand in square brackets, D forms with d. Residues, ends and D or L forms follow the SMILES beside them. *: point of attachment. Phe(4-tetrazol-5-yl) = N[C@@H](Cc1ccc(-c2nnn[nH]2)cc1)C(=O)O; Propanoyl(3-(4-HOOCCH2-Ph)) = O=C(O)Cc1ccc(CCC(=O)*)cc1; X15 = O=C([C@@H](Cc1ccc(-c2nn[nH]n2)cc1)N[*:1])[*:2]; X6 = O=C([C@H](Cc1ccc(Cc2nnn[nH]2)cc1)N[*:1])[*:2]; X13 = O=C(O)C(F)(F)c1ccc(CC(N[*:1])C(=O)[*:2])cc1; X5 = CCOC(=O)Cc1ccc(C[C@H](N[*:1])C(=O)[*:2])cc1; X7 = O=C(C(Cc1ccc(-c2nn[nH]n2)cc1)N[*:1])[*:2]; X8 = O=C(C(Cc1ccc(Cc2nn[nH]n2)cc1)N[*:1])[*:2]; X12 = O=C(O)Cc1cccc(CC(N[*:1])C(=O)[*:2])c1; X1 = O=C(O)Cc1ccc(CC(N[*:1])C(=O)[*:2])cc1; X16 = O=C(CCc1ccc(-c2nnn[nH]2)cc1)*; X2 = O=C(CCc1ccc(Cc2nnn[nH]2)cc1)*; NMeF = CN[C@@H](Cc1ccccc1)C(=O)O; Nle = CCCC[C@H](N)C(=O)O

Tests used:
[1] = target: T1, Bovine Striatum (3H-CCK-8-(SO3 H) receptor binding) (Bos taurus, UniProt P79266); test: In vitro receptor binding assay, 3H-CCK-8-(SO3H), bovine striatum homogenate
T1 construct: tissue homogenate (striatum approximately 0.26 mg protein in 2 mL final volume); from tissue; host or cells: bovine striatum membrane homogenate
T1 sequence (P79266 1-454): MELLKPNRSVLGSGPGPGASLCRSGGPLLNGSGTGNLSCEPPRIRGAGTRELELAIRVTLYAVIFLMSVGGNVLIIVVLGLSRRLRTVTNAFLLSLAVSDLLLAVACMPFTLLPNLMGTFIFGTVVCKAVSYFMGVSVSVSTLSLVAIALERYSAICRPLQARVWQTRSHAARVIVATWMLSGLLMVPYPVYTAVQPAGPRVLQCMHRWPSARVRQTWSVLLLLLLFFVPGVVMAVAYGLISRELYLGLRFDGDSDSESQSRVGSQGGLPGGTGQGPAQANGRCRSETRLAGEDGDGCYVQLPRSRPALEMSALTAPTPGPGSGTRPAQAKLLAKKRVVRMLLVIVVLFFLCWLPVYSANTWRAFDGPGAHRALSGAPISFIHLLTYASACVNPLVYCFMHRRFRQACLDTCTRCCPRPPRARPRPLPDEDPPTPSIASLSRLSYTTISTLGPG
Description: (§1) Frozen bovine striatum (approx. 5 g) or fresh rat pancreas (approx. 5 g) cleaned of fat and extraneous tissue were homogenized in HEPES buffer #1 (10 mM HEPES+130 mM NaCl+5 mM MgCl2, pH 7.4) using 35 parts buffer per 1 part tissue on a wet weight/volume basis (approx. 175 mL). The tissue was homogenized 2×for approx. 15 sec. at 0° C. using a Polytron homogenizer at a setting of 6. The tissue was isolated by centrifugation at 48,000× g for 10 min at 0° C. The resulting tissue pellet was resuspended in HEPES buffer #2 (10 mM HEPES+130 mM NaCl+5 mM MgCl2 +1 mg/L phenylmethanasulfonyl fluoride (PMSF)+200 mg/L Bacitracin): 1 part striatal tissue (original wet weight) per 80 parts buffer and 1 part pancreas tissue (original wet weight) per 500 to 1000 parts buffer.
(§2) Incubation was initiated by combining various concentrations of native CCK-8 or peptides of the invention with ^3 H-CCK-8-(SO3 H) (final conc.=0.15 nM) and tissue homogenate (striatum approximately 0.26 mg protein in 2 mL final volume; pancreas approximately 0.100 mg protein in 1 mL final volume). Samples were incubated for 30 min at 25° C. and the incubation terminated by pouring the mixture onto a pre-wetted Whatman GF/B filter on a Sandbeck Vacuum Filtration Manifold. The incubation tubes were washed with 2×3 mL of ice-cold HEPES Buffer #2 and the wash filtered through the GF/B filter. The filter was air dried for 10 min and then placed in a scintillation vial with 12 mL of DuPont/NEN Aquasol scintillation cocktail. The vials were shaken overnight and then counted using a liquid scintillation spectrometer. Non-specific binding was determined in the presence of 1 micromolar native CCK-8 and subtracted from all samples to determine specific binding. The concentration of peptide necessary to inhibit 50% of total specific H-CCK-8-(SO3 H) binding (IC50 value) was determined by log-probit analysis.

[2] = target: T2, rat pancreas (3H-CCK-8-(SO3 H) receptor binding) (Rattus norvegicus, UniProt P30551); test: In vitro receptor binding assay, 3H-CCK-8-(SO3H), rat pancreas homogenate
T2 construct: pancreas approximately 0.100 mg protein in 1 mL final volume; from tissue; host or cells: rat pancreas membrane homogenate
T2 sequence (P30551 1-444): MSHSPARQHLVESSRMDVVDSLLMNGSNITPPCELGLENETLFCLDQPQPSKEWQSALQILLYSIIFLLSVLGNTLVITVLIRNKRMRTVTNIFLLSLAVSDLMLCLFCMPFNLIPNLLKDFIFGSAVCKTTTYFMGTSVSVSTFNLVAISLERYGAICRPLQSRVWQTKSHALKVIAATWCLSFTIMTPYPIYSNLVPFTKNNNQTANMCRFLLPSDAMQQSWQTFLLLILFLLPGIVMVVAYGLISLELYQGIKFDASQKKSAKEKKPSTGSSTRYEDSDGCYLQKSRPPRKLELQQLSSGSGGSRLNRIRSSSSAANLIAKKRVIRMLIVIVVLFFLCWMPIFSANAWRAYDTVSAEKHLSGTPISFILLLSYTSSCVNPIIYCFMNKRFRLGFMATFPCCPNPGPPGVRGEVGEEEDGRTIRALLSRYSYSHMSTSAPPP
Description: as §1, §2

[3] = 3H-CCK-8-(SO3H) 0.15 nM, 30 min at 25° C., bovine striatum homogenate, read-out: Bovine Striatum IC50 (concentration to inhibit 50% of specific 3H-CCK-8-(SO3H) binding)
[4] = 3H-CCK-8-(SO3H) 0.15 nM, 30 min at 25° C., rat pancreas homogenate, read-out: Rate Pancreas IC50 (concentration to inhibit 50% of specific 3H-CCK-8-(SO3H) binding)

| SMILES | pIC50 [1, 3] | pIC50 [2, 4] | pIC50 [1] | pIC50 [2] |
| --- | --- | --- | --- | --- |
| CSCC[C@H](NC(=O)C(Cc1ccc(-c2nn[nH]n2)cc1)NC(C)=O)C(=O)NCC(=O)N[C@@H](Cc1c[nH]c2ccccc12)C(=O)N[C@@H](CCSC)C(=O)N[C@@H](CC(=O)O)C(=O)N[C@@H](Cc1ccccc1)C(N)=O (stereo partly drawn) [Example 53, Ac-(D,L)Phe(4-tetrazole)-Met-Gly-Trp-Met-Asp-Phe-NH2] (Ac-[X7]MGWMDF-NH2) | 8.80 | 7.66 |  |  |
| CCCC[C@H](NC(=O)CCc1ccc(Cc2nnn[nH]2)cc1)C(=O)NCC(=O)N[C@@H](Cc1c[nH]c2ccccc12)C(=O)N[C@@H](CCCC)C(=O)N[C@@H](CC(=O)O)C(=O)N(C)[C@@H](Cc1ccccc1)C(N)=O [Example 66, Desamino-Phe(4-CH2 -tetrazole)-Nle-Gly-Trp-Nle-Asp-N-methyl-Phe-NH2] (X2-[Nle]GW[Nle]D[NMeF]-NH2) | 6.80 | 6.15 |  |  |
| CSCC[C@H](NC(=O)CCc1ccc(CC(=O)O)cc1)C(=O)NCC(=O)N[C@@H](Cc1c[nH]c2ccccc12)C(=O)N[C@@H](CCSC)C(=O)N[C@@H](CC(=O)O)C(=O)N[C@@H](Cc1ccccc1)C(N)=O [Example 59, Desamino Phe(4-CH2 -COOH)-Met-Gly-Trp-Met-Asp-Phe-NH2] ({Propanoyl(3-(4-HOOCCH2-Ph))}-MGWMDF-NH2) |  | 7.24 |  |  |
| CSCC[C@H](NC(=O)C(Cc1cccc(CC(=O)O)c1)NC(C)=O)C(=O)NCC(=O)N[C@@H](Cc1c[nH]c2ccccc12)C(=O)N[C@@H](CCSC)C(=O)N[C@@H](CC(=O)O)C(=O)N[C@@H](Cc1ccccc1)C(N)=O (stereo partly drawn) [Example 58, Ac-(D,L)Phe-(3-CH2 COOH)-Met-Gly-Trp-Met-Asp-Phe-NH2] (Ac-[X12]MGWMDF-NH2) | 7.28 | 7.64 |  |  |
| CCCC[C@H](NC(=O)CCc1ccc(CC(=O)O)cc1)C(=O)NCC(=O)N[C@@H](Cc1c[nH]c2ccccc12)C(=O)N[C@@H](CCCC)C(=O)N[C@@H](CC(=O)O)C(=O)N(C)[C@@H](Cc1ccccc1)C(N)=O [Example 70, Desamino-Phe(4-CH2 COOH)-Nle-Gly-Trp-Nle-Asp-N-methyl-Phe-NH2] ({Propanoyl(3-(4-HOOCCH2-Ph))}-[Nle]GW[Nle]D[NMeF]-NH2) | 6.70 | 6.48 |  |  |
| CSCC[C@H](NC(=O)C(Cc1ccc(Cc2nn[nH]n2)cc1)NC(C)=O)C(=O)NCC(=O)N[C@@H](Cc1c[nH]c2ccccc12)C(=O)N[C@@H](CCSC)C(=O)N[C@@H](CC(=O)O)C(=O)N[C@@H](Cc1ccccc1)C(N)=O (stereo partly drawn) [Example 60, Ac-(D,L)Phe(4-CH2 tetrazole)-Met-Gly-Trp-Met-Asp-Phe-NH2] (Ac-[X8]MGWMDF-NH2) | 6.47 | 6.14 |  |  |
| CSCC[C@H](NC(=O)C(Cc1ccc(CC(=O)O)cc1)NC(C)=O)C(=O)NCC(=O)N[C@@H](Cc1c[nH]c2ccccc12)C(=O)N[C@@H](CCSC)C(=O)N[C@@H](CC(=O)O)C(=O)N[C@@H](Cc1ccccc1)C(N)=O (stereo partly drawn) [Example 46, Ac-(D,L)Phe(4-CH2 COOH)-Met-Gly-Trp-Met-Asp-Phe-NH2] (Ac-[X1]MGWMDF-NH2) | 7.33 | 8.44 |  |  |
| CSCC[C@H](NC(=O)[C@H](Cc1ccc(-c2nnn[nH]2)cc1)NC(C)=O)C(=O)NCC(=O)N[C@@H](Cc1c[nH]c2ccccc12)C(=O)N[C@@H](CCSC)C(=O)N[C@@H](CC(=O)O)C(=O)N[C@@H](Cc1ccccc1)C(N)=O [Example 55, AcPhe(4-tetrazole)MetGlyTrpMetAspPheNH2] (Ac-[Phe(4-tetrazol-5-yl)]MGWMDF-NH2) | 9.29 |  |  |  |
| CSCC[C@H](NC(=O)[C@H](Cc1ccc(OS(=O)(=O)O)cc1)NC(=O)[C@@H](N)CC(=O)O)C(=O)NCC(=O)N[C@@H](Cc1c[nH]c2ccccc12)C(=O)N[C@@H](CCSC)C(=O)N[C@@H](CC(=O)O)C(=O)N[C@@H](Cc1ccccc1)C(N)=O [CCK-8, AspTyr(SO3 H)MetGlyTrpMetAspPheNH2, reference compound] | 8.49 to 9.00 | 8.34 to 9.00 |  |  |
| CCCC[C@H](NC(=O)[C@H](Cc1ccc(Cc2nnn[nH]2)cc1)NC(C)=O)C(=O)NCC(=O)N[C@@H](Cc1c[nH]c2ccccc12)C(=O)N[C@@H](CCCC)C(=O)N[C@@H](CC(=O)O)C(=O)N(C)[C@@H](Cc1ccccc1)C(N)=O [Example 65, Ac-Phe(4-CH2 -tetrazole) -Nle-Gly-Trp-Nle-Asp- N-methyl-Phe-NH2] (Ac-[X6][Nle]GW[Nle]D[NMeF]-NH2) | 7.16 | 6.59 |  |  |
| CCOC(=O)Cc1ccc(C[C@H](NC(C)=O)C(=O)N[C@@H](CCSC)C(=O)NCC(=O)N[C@@H](Cc2c[nH]c3ccccc23)C(=O)N[C@@H](CCSC)C(=O)N[C@@H](CC(=O)OCC)C(=O)N[C@@H](Cc2ccccc2)C(N)=O)cc1 [Example 50, Ac-Phe(4-CH2 COOC2 H5)-Met-Gly-Trp-Met-Asp-(COOC2 H5)-Phe-NH2] (Ac-[X5]MGWMD(OEt)F-NH2) | 5.00 | 5.44 |  |  |
| CSCC[C@H](NC(=O)CCc1ccc(CC(=O)O)cc1)C(=O)NCC(=O)N[C@@H](Cc1c[nH]c2ccccc12)C(=O)N[C@@H](CCSC)C(=O)N[C@@H](CC(=O)O)C(=O)N(C)[C@@H](Cc1ccccc1)C(N)=O [Example 69, Desamino-Phe(4-CH2 -COOH)-Met-Gly-Trp-Met-Asp-N-methyl-Phe-NH2] ({Propanoyl(3-(4-HOOCCH2-Ph))}-MGWMD[NMeF]-NH2) | 8.49 | 8.74 |  |  |
| CSCC[C@H](NC(=O)C(Cc1ccc(C(F)(F)C(=O)O)cc1)NC(C)=O)C(=O)NCC(=O)N[C@@H](Cc1c[nH]c2ccccc12)C(=O)N[C@@H](CCSC)C(=O)N[C@@H](CC(=O)O)C(=O)N[C@@H](Cc1ccccc1)C(N)=O (stereo partly drawn) [Example 52, Ac-(D,L)Phe(4-CF2 COOH)-Met-Gly-Trp-Met-Asp-Phe-NH2] (Ac-[X13]MGWMDF-NH2) |  |  | 7.18 | 7.09 |
| CCCC[C@H](NC(=O)C(Cc1ccc(Cc2nn[nH]n2)cc1)NC(C)=O)C(=O)NCC(=O)N[C@@H](Cc1c[nH]c2ccccc12)C(=O)N[C@@H](CCCC)C(=O)N[C@@H](CC(=O)O)C(=O)N(C)[C@@H](Cc1ccccc1)C(N)=O (stereo partly drawn) [Example 63, Ac-(D,L)Phe(4-CH2 -tetrazole)-Nle-Gly-Trp-Nle-Asp-N-methyl-Phe-NH2] (Ac-[X8][Nle]GW[Nle]D[NMeF]-NH2) | 6.59 | 6.19 |  |  |
| CSCC[C@H](NC(=O)[C@H](Cc1c[nH]c2ccccc12)NC(=O)CNC(=O)[C@H](CCSC)NC(=O)[C@@H](Cc1ccc(-c2nn[nH]n2)cc1)NC(C)=O)C(=O)N[C@@H](CC(=O)O)C(=O)N[C@@H](Cc1ccccc1)C(N)=O [Example 54, Ac-(D)Phe(4-tetrazole)-Met-Gly-Trp-Met-Asp-Phe-NH2] (Ac-[X15]MGWMDF-NH2) | 7.30 |  |  |  |
| CSCC[C@H](NC(=O)CCc1ccc(-c2nnn[nH]2)cc1)C(=O)NCC(=O)N[C@@H](Cc1c[nH]c2ccccc12)C(=O)N[C@@H](CCSC)C(=O)N[C@@H](CC(=O)O)C(=O)N[C@@H](Cc1ccccc1)C(N)=O [Example 67, Desamino-Phe(4-tetrazole)-Met-Gly-Trp-Met-Asp-Phe-NH2] (X16-MGWMDF-NH2) | 8.29 |  |  |  |
